target: T1, hCX3CR1 (Homo sapiens, UniProt P49238); experiment: in vitro hCX3CR1 binding assay ([125I]-fractalkine competition binding, membranes); conditions: competition with 10 pM [125I]-fractalkine, membranes of HEKS 293 cells expressing hCX3CR1, 25° C., 24 h
T1 construct: expressed in transfected cells; host or cells: HEKS 293 (human embryonic kidney suspension) cells stably expressing chimeric G-protein Gαqi5
T1 sequence (P49238 1-355): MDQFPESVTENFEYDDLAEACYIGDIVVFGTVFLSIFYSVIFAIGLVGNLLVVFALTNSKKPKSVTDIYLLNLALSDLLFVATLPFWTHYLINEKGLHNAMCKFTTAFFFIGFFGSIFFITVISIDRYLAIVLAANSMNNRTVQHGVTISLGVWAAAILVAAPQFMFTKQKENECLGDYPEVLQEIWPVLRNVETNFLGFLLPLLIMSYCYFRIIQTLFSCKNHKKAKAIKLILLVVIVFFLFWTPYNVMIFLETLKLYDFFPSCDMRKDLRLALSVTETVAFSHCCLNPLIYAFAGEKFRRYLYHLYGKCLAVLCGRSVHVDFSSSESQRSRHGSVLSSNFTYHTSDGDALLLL
Procedure: The complete human CX3CR1 cDNA (GenBank accession number U20350) was extracted from human brain mRNA (Superscript, Life Technologies) and ligated into pCR-Blunt II TOPO vector (InVitrogen). The insert corresponding hCX3CR1 was isolated and further subcloned into pcDNA3.1zeo. Plasmid DNA was prepared using Plasmid Midi Kit (Qiagen). Using Superfect Transfection Reagent (Qiagen) according to the manufacturer's protocol the expression plasmid for hCX3CR1 was then introduced into human embryonic kidney suspension (HEKS) 293 cell line containing a vector for stable expression of a chimeric G-protein Gαqi5. A stable clone was generated utilizing zeocin (500 μg/mL) and hygromycin (100 μg/mL) selection. For further applications the cells were maintained in Dulbecco's modified Eagle's medium/Ham's nutrient mix F12 (DMEM/F12) containing pyridoxine and supplemented with 10% (v/v) fetal bovine serum, 2 mM L-glutamine, 100 U/ml penicillin and […] streptomycin, 250 μg/mL zeocin and 100 μg/mL hygromycin.
Cells are grown at 37° C. and 5% CO2 and harvested at 60-80% confluence in buffer containing 10 mM Tris-HCl pH 7.4, 5 mM EDTA, 0.1 mg/mL bacitracin. The cells are centrifuged at 300×g for 10 min and the pellet is resuspended in harvesting buffer (10 mM Tris-HCl, pH 7.4, 5 mM ethylenediaminetetra-aceticacid (EDTA) and 0.1 mg/mL bacitracin), pooled and homogenised using a Dounce homogeniser. The homogenate is centrifuged in 48000×g for 10 min and resuspended in harvesting buffer using Ultra-Turrax T8. Membrane aliquots are stored at −80° C. Protein concentration was determined in microtiter plates as described by Harrington (1990, Anal. Biochem. 186, 285-287).
Competition binding studies of [^125I]fraktalkine were performed in 2 mL 96-deep-well plates (Beckman, Germany) in a total volume of 1000 μL/well. Each well contained 10 pM [^125I]-fractalkine and membrane equivalent to receptor concentration of 1 pM in assay buffer (50 mM Hepes-KOH, pH 7.4, 10 mM MgCl2, 1 mM EDTA, 0.1% (w/v) gelatine). Ten concentrations (2 points/log unit) of the test compounds were pre-dissolved in DMSO and added to reach a final concentration of 1% (v/v) DMSO. The assay was initiated with the addition of membranes and incubated at 25° C. for 24 h. The reactions were stopped by rapid filtration through Whatman GF/B glass fiber filters pretreated with 0.3% polyethylimine and subsequent washing with ice-cold buffer (10 mM Hepes-KOH pH 7.4, 500 mM NaCl) using a Brandel receptor binding harvester. Scintillation cocktail was added and radioactivity was determined in a Packard 2500TR liquid scintillation counter. (Perkin Elmer, USA)

Row | SMILES | Ki
1 | CCC[C@H](CO)Nc1nc(S[C@@H](C)c2ccc(Cl)nc2)nc2nc(N)sc12 [Example 7, (2R)-2-[(2-Amino-5-{[(1S)-1-(6-chloropyridin-3-yl)ethyl]thio}[1,3]thiazolo[4,5-d]pyrimidin-7-yl)amino]pentan-1-ol] | 149 nM
2 | CC(C)C[C@H](CO)Nc1nc(S[C@@H](C)c2ccc(F)cn2)nc2nc(N)sc12 (single isomer, unassigned) [Example 3] | 6.5 nM
3 | CC(C)C[C@H](CO)Nc1nc(S[C@@H](C)c2cc(C#N)ccn2)nc2nc(N)sc12 [Example 8, 2-{(1S)-1-[(2-Amino-7-{[(1R)-1-(hydroxymethyl)-3-methylbutyl]amino}[1,3]thiazolo[4,5-d]pyrimidin-5-yl)thio]ethyl}isonicotinonitrile] | 81 nM
4 | CCC[C@H](CO)N(C)c1nc(S[C@@H](C)c2ccc(Cl)nc2)nc2nc(N)sc12 [Example 6, (2R)-2-[(2-amino-5-{[(1S)-1-(6-chloropyridin-3-yl)ethyl]thio}[1,3]thiazolo[4,5-d]pyrimidin-7-yl)(methyl)amino]pentan-1-ol] | 203 nM
5 | CC(C)C[C@H](CO)Nc1nc(S[C@@H](C)c2ncccc2F)nc2nc(N)sc12 [Example 5, (2R)-2-[(2-Amino-5-{[(1S)-1-(3-fluoropyridin-2-yl)ethyl]thio}[1,3]thiazolo[4,5-d]pyrimidin-7-yl)amino]-4-methylpentan-1-ol] | 23 nM
6 | CC(C)C[C@H](CO)Nc1nc(S[C@@H](C)c2ccc(Cl)cn2)nc2nc(N)sc12 [Example 2, (2R)-2-[(2-Amino-5-{[(1S)-1-(5-chloropyridin-2-yl)ethyl]thio}[1,3]thiazolo[4,5-d]pyrimidin-7-yl)amino]-4-methylpentan-1-ol] | 6.2 nM
7 | CC(C)C[C@H](CO)Nc1nc(S[C@@H](C)c2ccncc2Cl)nc2nc(N)sc12 [Example 9b, (2R)-2-[(2-amino-5-{[(1S)-1-(3-chloropyridin-4-yl)ethyl]thio}[1,3]thiazolo[4,5-d]pyrimidin-7-yl)amino]-4-methylpentan-1-ol] | 35 nM
8 | CC(C)C[C@H](CO)Nc1nc(SC(C)c2ccc(F)cn2)nc2nc(N)sc12 (mixture of isomers) [Example 1, (2R)-2-[(2-Amino-5-{[1-(5-fluoropyridin-2-yl)ethyl]thio}[1,3]thiazolo[4,5-d]pyrimidin-7-yl)amino]-4-methylpentan-1-ol] | 21 nM

From US8158785B2, “5,7-disubstituted[1.3]thiazolo [4,5-D] pyrimidin-2(3H)-amine derivatives and their use in therapy” (AstraZeneca AB, priority 2006, dated 2012)
